Measured values reported in US20090131480A1 (priority 2005, published 2009).

Experiments:
[1] = system: dopamine turnover in mice striatum; test: Dopamine, DOPAC and HVA content / dopamine turnover in mice striatum (HPLC with electrochemical detection); type: in vivo, C57BL/6 mice; settings: for dopamine turnover in mice: monotherapy vs combination, FIG. 3
Procedure: C57BL/6 mice (SLC, Shizuoka, Japan) were used for the experiment. […] The two drugs were orally administered by gavage 1 hour before sampling. At the time the mice were sacrificed, both striata were rapidly dissected and were frozen by liquid nitrogen. The samples were subsequently sonicated in 0.5 ml of chilled 0.5 M perchloric acid containing 0.1 M EDTA, and centrifuged at 13000 rpm for 15 min at 4° C. Then monoamine levels were measured by HPLC with electrochemical detection. Supernatant aliquots of 201 were separated over an Eicompak SC5-ODS column (3×150 mm; Eicom, Japan) with mobile phase of 17% methanol, 83% 0.1M acetate/citrate buffer (pH 3.5) containing 190 mg/ml sodium 1-octanesulfonate and 50 mg/ml EDTA, and a flow rate of 0.65 ml/min. Peaks of dopamine, DOPAC, HVA, 5-HT, and 5-HIAA were quantified by area integration with PowerChrom (eDAQ, Australia), and concentrations were expressed as nanograms per milligram of striatal tissue.

[2] = C57BL/6, mouse, in vivo, po, 1 h
[3] = system: organotypic hippocampal slice cultures; test: Oxygen-glucose deprivation (OGD) in organotypic hippocampal slice cultures (PI fluorescence in CA1); type: cell-based, Wistar rat
Procedure: (§1) Medium was changed every 3-4 days.
(§2) Neurotoxicity protocols are outlined below.
(2) Oxygen-Glucose Deprivation (OGD): Experimental ischaemia was performed by exposing cultures to oxygen-glucose deprivation (OGD) as described previously. […] OGD was induced by transferring cultures to glucose-free SFM (+PI) which had been saturated with 95% N2/5% CO2. Culture plates (without lids) were then sealed into an airtight chamber in which the atmosphere was saturated with 95% N2/5% CO2 by continuously blowing through gas at 10 L/min for ten minutes before being sealed and placed in the incubator for 50 mins (total time of OGD was therefore 60 mins). At the end of the period of OGD cultures were returned to normoxic SFM containing PI and placed back in the incubator for 23 hours.

[4] = system: organotypic hippocampal slice cultures; test: Hypoxia-induced neurodegeneration in organotypic hippocampal slice cultures (PI fluorescence in CA1); type: cell-based, Wistar rat
Procedure: as §1, §2
(3) Hypoxia: Hypoxia was performed by exposing cultures to oxygen-deprivation as described previously. Pringle et al, Brain Research, 755:36-46 (1997); Pringle et al, Stroke, 27:2124-2130 (1996). Hypoxia was induced by transferring cultures to SFM (+PI) which had been saturated with 95% N2/5% CO2. Culture plates (without lids) were then sealed into an airtight chamber in which the atmosphere was saturated with 95% N2/5% CO2 by continuously blowing through gas at 10 L/min for ten minutes before being sealed and placed in the incubator for 170 mins (total time of hypoxia was therefore 180 mins). At the end of the period of hypoxia, cultures were returned to normoxic SFM (+PI) and placed back in the incubator for 21 hours. The freeradical scavenger MnTBAP (100 μM) was used as a positive neuroprotective control.

[5] = system: organotypic hippocampal slice cultures; test: AMPA toxicity in organotypic hippocampal slice cultures (PI fluorescence in CA1); type: cell-based, Wistar rat
Procedure: as §1, §2
(1) AMPA: Cultures were transferred to fresh SFM (+PI) containing 30 μM S-AMPA for 3 hours under normal culture conditions. At the end of this period, cultures were returned to fresh SFM for 21 hours prior to determination of neuronal death by PI imaging. GYKI52466 (30 μM) was used as a positive, neuroprotective control.

[6] = system: organotypic hippocampal slice cultures; test: Duroquinone free radical-mediated toxicity in organotypic hippocampal slice cultures (PI fluorescence in CA1); type: cell-based, Wistar rat; settings: 100 μM; 100 μM duroquinone 3 hours; duroquinone alone 51.0±3.4%
Procedure: as §1, §2
(5) Free radical-mediated toxicity (Duroquinone): Duroquinone produces superoxide-mediated neurotoxicity producing a selective neuronal lesion in the CA1 region. Wilde et al, J. Neurochem., 69(2):883-886 (1997). Cultures were transferred to fresh SFM (+PI) containing 100 μM duroquinone for 3 hours under normal culture conditions. At the end of this period, cultures were returned to fresh SFM for 21 hours prior to determination of neuronal death by PI imaging. MnTBAP (100 μM) was used as a positive neuroprotective control.

## COc1cc2c(cc1OC)C(=O)C(CC1CCN(Cc3ccccc3)CC1)C2 (stereo not shown) [donepezil, 1-benzyl-4-((5,6-dimethoxy-1-indanon)-2-yl)methylpiperidine]
[1]; donepezil orally, 1 hour before sampling
  content of dopamine in striatum: reduced the content of dopamine significantly
[1]; donepezil orally, FIG. 2
  DPAC/DA: increased significantly
  HVA/DA: increased significantly
[1]
  dopamine turnover in mice: modulated dopamine turnover but neither reached significance
[2]
  dose at which peripheral side effect was shown: ≥ 7.5 mg/kg

## N#Cc1ccccc1-c1cc(-c2ccccn2)cn(-c2ccccc2)c1=O [2-(2-oxo-1-phenyl-5-pyridin-2-yl-1,2-dihydropyridin-3-yl)benzonitrile]
[1]; 1 mg/kg, orally, 1 hour before sampling, FIG. 1
  content of HVA in striatum: elevated
[1]
  dopamine turnover in mice: modulated dopamine turnover but neither reached significance
[3]; any other concentration assessed (up to 3 μM), OGD alone 50.6±5.2%
  effect on OGD-induced neurotoxicity: no significant effect
[3]; six-point concentration-response curve
  EC50 in OGD model: could not be established
[4]; 5 μM, hypoxia alone 45.1±3.5%
  neuronal damage, % of CA1 with PI fluorescence: 3.9±1.8%

## CC1=NN=C(c2ccc(N)cc2)c2cc3c(cc2C1)OCO3 [GYKI52466]
[5]; 30 μM test compound, 30 μM AMPA 3 hours, AMPA alone 65.1±1.7%
  neuronal damage, % of CA1 with PI fluorescence: 14.3±2.3%
[5]; 30 μM, pre-incubation series, AMPA alone 46.5±5.0%
  neuronal damage, % of CA1 with PI fluorescence: 21.7±2.7%
[3]; 30 μM, 60 minutes OGD, OGD alone 50.6±5.2%
  neuronal damage, % of CA1 with PI fluorescence: 36.9±3.6%

## O=C(O)c1ccc(/C2=C3\C=CC(=N3)/C(c3ccc(C(=O)O)cc3)=c3/cc/c4[n]3[Mn]([Cl])[n]3c2ccc3/C(c2ccc(C(=O)O)cc2)=C2/C=CC(=N2)\C=4c2ccc(C(=O)O)cc2)cc1 [MnTBAP]
[3]; 100 μM, 60 minutes OGD, OGD alone 50.6±5.2%
  neuronal damage, % of CA1 with PI fluorescence: 0.1±0.0%
[3]; 100 μM, second series, OGD alone 44.8±[…]
  neuronal damage, % of CA1 with PI fluorescence: 0.6±0.2%
[6]
  neuronal damage, % of CA1 with PI fluorescence: 0.1±0.0%
[4]; 100 μM, 3 hours hypoxia, hypoxia alone 45.1±3.5%
  neuronal damage, % of CA1 with PI fluorescence: 0.2±0.1%
[4]; 100 μM, repeated experiment, hypoxia alone 36.9±[…]
  neuronal damage, % of CA1 with PI fluorescence: 0.8±0.4%
[4]; second set, hypoxia alone 36.4±[…]
  neuronal damage, % of CA1 with PI fluorescence: 0.0±0.0%
